# Data reported in patent US20030007964A1, “Method for treating rheumatoid arthritis with composition containing histone” (SAMYANG GENEX CORPORATION, priority 1998, published 2003).
# Columns and labels:
# [1] = system: collagen induced arthritis; assay: Treatment effect on collagen induced arthritis in mice, histone H2A and its active fragment (Example 7); format: in vivo
# Method: (§1) Five-week old DBA/1J female mice were imported from Charles River Japan and allowed to adapt in an animal room for two weeks before using them in the experiments at the age of 7 weeks (20-25 g).
# (§2) Isolated and quantified type II collagen of chicken (Sigma Chemical Co., St. Louis, Mo., U.S.A.) was solubilized in 0.1 N acetic acid at a concentration of 2 mg/ml. The solution was mixed with an equal amount of a complete Freund's adjuvant at 4° C. to form a suspension. One hundred microliters of this mixture was injected […] around the origin of the tail vein and further inoculated at 3 and 6 weeks after the first injection (D. E. Trentham et. al., Autoimmunity to Type II collagen: An Experimental Model of Arthritis, J. Exp. Med. 146; 857-868 (1977)). Arthritis was induced from the 4th week after the first injection.
# (§3) Clinical incidence of arthritis % (C.I.A) and arthritis index were examined. C.I.A. was expressed as the percentage of mice that have arthritic symptoms among the total mice. The degree of inflammation expressed as the arthritis index was categorized from 0 to 3 by 2 researchers every week as below. Pictures of the feet of some mice were taken 6 weeks after the collagen administration.
# (§4) 1: One or two toes were swollen with suffusion or had minimal swelling
# (§5) 2: Definite suffusion or local swelling in many toes
# (§6) 3: Observation of severe edema and swelling up to the knee and restricted use of the feet.
# (§7) The arthritis index was calculated for 4 feet (2 hind feet and 2 fore feet) giving the maximum value of 12. An index of 6-8 was considered severe since collagen induced arthritis invades in general mainly the hind feet (Korea J. Immunol. 18, 437, 1996; J. Immunol. 151, 6546,1993).
# As a test group to examine the treatment effect, 5 mice for histone H2A and 7mice for histone H2A active fragment were used. 1 mg/kg body weight of histone H2A or histone H2A active fragment was administered into the mice via intraperitoneal injection 2 times every week from the 6th week (after arthritis induction) up to the 10th week. Histone H2A or histone H2A active fragment was diluted at a concentration of 5 mg/ml in PBS. As a comparison group, 1 mg/kg body weight of dexamethasone, a currently available rheumatoid arthritis drug, was administered into 7 mice via an intraperitoneal injection 2 times every week from the 6th week (after arthritis induction) up to the 10th week. As a control group, […] of PBS was administered into 7 mice every week from the third week up to 10th week after the first collagen injection.
# [2] = system: collagen induced arthritis; assay: Treatment effect on collagen induced arthritis in mice, histone H1 (Example 4); format: in vivo, DBA/1J female mice; design: key to arthritis index: sum of 0–3 per-foot scores over 4 feet, max 12
# Method: as §1, §2, §3, §4, §5, §6, §7
# As a test group to examine the treatment effect, 1 mg/kg body weight of histone H1 was administered into 10 mice via intraperitoneal injection 2 times every week from the 6th week (after arthritis induction) up to the 10th week. Histone H1 was diluted at a concentration of 5 mg/ml in PBS. As a comparison group, 1 mg/kg body weight of dexamethasone, a currently available rheumatoid arthritis drug, was administered into 10 mice via an intraperitoneal injection 2 times every week from the 6th week (after arthritis induction) up to the 10th week. Identical control group was used as in EXAMPLE 1.
# [3] = system: collagen induced arthritis; assay: Preventive effect against collagen induced arthritis in mice (Example 3); format: in vivo, DBA/1J female mice; conditions: preventive regimen
# Method: as §1, §2, §3, §4, §5, §6, §7
# As a test group to examine the preventive effect, 1 mg/kg body weight of histone H1 was administered into 10 mice via intraperitoneal injection 2 times every week from the third week (before arthritis induction) up to 10th week after the first injection. Histone H1 was diluted at a concentration of 5 mg/ml in PBS. As a comparison group, 1 mg/kg body weight of dexamethasone, a currently available rheumatoid arthritis drug, was administered into 10 mice via intraperitoneal injection 2 times every week from the third week (before arthritis induction) up to 10th week after the first injection. As a control group, 300 μl of PBS was administered into 20 mice 2 times every week from the third week up to 10th week after the first collagen injection.
# [4] = system: collagen induced arthritis; assay: Pathological observation of leg joints by H-E staining; format: in vivo, mice; conditions: treatment regimen; 10 weeks after antigen inoculation
# Excerpt: Mice were sacrificed by blood evacuation from the heart. The legs were cut immediately after the sacrifice and fixed in formalin. After the decalcification, legs were stained by hematoxylin-Eosin.
# [5] = system: anti-collagen antibody (Type II collagen); assay: Serum anti-collagen antibody level by ELISA; format: in vivo, mice; conditions: serum at 10th week
# Method: At the 10th week the serum was isolated from the blood obtained through a heart puncture. The serum was kept at −80° C. and thawed immediately before the experiment to measure the anti-collagen antibody level by performing an ELISA (D. E. Tretham & R. A. Dynesius-Trentham, J. Immunol. 130; 2689-2692 (1983)). Type II collagen (25 μg/ml) in 0.1 M PBS was placed in each well of a 96-well polystyrene microplate (Nunc, Denmark) and was incubated at 4° C. for 8 hours. After the incubation, the wells were washed several times with a PBS-0.05% Tween 20 solution. To prevent non-specific immune reactions, PBS-0.5% ovalbumin was added in each well and incubated for an hour at room temperature and subsequently washed again with the PBS-0.05% Tween 20 solution. The serum, diluted 500 times with a buffer solution was added in each well and reacted for 2 hours at room temperature and further washed with the PBS-0.05% Tween 20 solution. After reacting each well with alkaline phosphatase conjugated goat anti-mouse IgA and IgM for 2 hours and adding 1 mg/ml of p-nitrophenyl phosphate, the absorbance at 450 nm was measured. The anti-collagen antibody level was measured twice for each sample and averaged.
# The anti-collagen antibody level was measured to estimate the immune reaction as in EXAMPLE 3. […]
# [6] = treatment regimen from 6th week, 7th week
# [7] = treatment regimen from 6th week, 8th week
# [8] = treatment regimen from 6th week, 10th week
# [9] = test group at 5th week, before administration (baseline)
compound,measurement,setting,value
"C[C@@H]1C[C@H]2[C@@H]3CCC4=CC(=O)C=C[C@]4(C)[C@@]3(F)[C@@H](O)C[C@]2(C)[C@@]1(O)C(=O)CO [dexamethasone, reference compound]",arthritis index,"[1]; 1 mg/kg i.p. from 6th week, 8th week",4.57
same,arthritis index,"[1]; 1 mg/kg i.p. from 6th week, 9th week",1.86
same,arthritis index,"[1]; 1 mg/kg i.p. from 6th week, 10th week",1.86
same,C.I.A. (clinical incidence of arthritis),[2]; [6],22.2%
same,arthritis index,[2]; [6],2.67
same,C.I.A. (clinical incidence of arthritis),[2]; [7],33.3%
same,arthritis index,[2]; [7],1.67
same,C.I.A. (clinical incidence of arthritis),"[2]; treatment regimen from 6th week, 9th week",22.2%
same,arthritis index,[2]; [8],3.00
same,arthritis index,[3]; 5 weeks,2.00
same,arthritis index,[3]; 6 weeks,1.50
Histone H1,"formation of pannus, erosion of cartilage or manifestation of inflammatory cells (H-E staining)",[4],not observed
same,edema of fore feet (pictures),[2]; 6th week after administration of the collagen,improvement of edema was observed
same,arthritis index,[2]; [9],3.33±0.58
same,arthritis index,"[2]; treatment regimen from 6th week, 6th week",2.67±0.58
same,C.I.A. (clinical incidence of arthritis),[2]; [6],12.5%
same,arthritis index,[2]; [6],1.00
same,C.I.A. (clinical incidence of arthritis),[2]; [7],14.3%
same,arthritis index,[2]; [7],2
same,C.I.A. (clinical incidence of arthritis),[2]; [8],14.3%
same,arthritis index,[2]; [8],1.00
same,fraction of the induced arthritis completely cured,"[2]; treatment regimen from 6th week, after the 7th week",⅔
same,C.I.A. (clinical incidence of arthritis),"[2]; treatment regimen, 1 mg/kg i.p. 2 times every week from 6th week, 6th week",37.5%
same,week at which arthritis was first observed after the inoculation,[3]; 1 mg/kg i.p.,7 week
same,arthritis induction,"[3]; 1 mg/kg i.p. 2 times every week from third week, up to the 6th week",complete prevention of arthritis induction
same,C.I.A. (clinical incidence of arthritis),"[3]; 1 mg/kg i.p., 7th week",60%
same,C.I.A. (clinical incidence of arthritis),"[3]; 1 mg/kg i.p., 8th week",60%
same,C.I.A. (clinical incidence of arthritis),"[3]; 1 mg/kg i.p., 10th week",80%
same,arthritis index relative to the control group,[3]; 7th week,60%
same,arthritis index,"[3]; mice that had arthritis, 10th week",2.25±1.26
same,anti-collagen antibody level (absorbance at 450 nm),"[5]; preventive regimen, diluted 500 times",0.588±.214
same,anti-collagen antibody level (absorbance at 450 nm),[5]; treatment regimen (from 6th week),0.540±170
Histone H2A,arthritis index,"[1]; 1 mg/kg i.p. 2 times every week from 6th week, 7th week",4.80±0.45
same,arthritis index,"[1]; 1 mg/kg i.p. from 6th week, after the 9th week",2.80
same,arthritis index,[1]; [9],3.60±0.55
